Source: patent US5053392A, “Novel arginine, glycine, aspartic acid derivatives as platelet-aggregation inhibitors” (Rhone-Poulenc Rorer Pharmaceuticals Inc., priority 1989, dated 1991)
Non-standard residues stand in square brackets, D forms with d. Residues, ends and D or L forms follow the SMILES beside them. ξ: configuration not given here. Aze = O=C(O)[C@@H]1CCN1; ξPip = O=C(O)C1CCCCN1; Ava = NCCCCC(=O)O

Columns and labels:
[1] = test system: thrombin-stimulated platelets; test: Inhibition of radiolabeled (125I) fibrinogen binding assay; settings: for Inhibition of 125I-Fibrinogen Binding to Platelet, inhibition at 50 μg/ml: at 50 μg/ml (footnote *); for IC50: thrombin-stimulated platelets, read-out: Inhibition of 125I-Fibrinogen Binding to Platelet IC50
Procedure: I. Inhibition of Radiolabeled (125I) Fibrinogen Binding Assay, which is essentially based on the method described in Proc Natl. Acad. Sci. U.S.A. Vol. 83, pp. 5708-5712, August 1986, and is as follows.
Platelets are washed free of plasma constitutes by the albumin density-gradient technique. In each experimental mixture platelets in modified Tyrode's buffer are stimulated with human α-thrombin at 22°-25° C. for 10 minutes (3.125×10" platelets per liter and thrombin at […]). Hirudin is then added at a 25-fold excess for 5 minutes before addition of the radiolabeled ligand and any competing ligand. After these additions, the final platelet count in the mixture is […], bound and free ligand are separated by centrifuging 50 μl of the mixture through 300 μl of 20% sucrose at 12,000×g for 4 minutes. The platelet pellet is then separated from the rest of the mixture to determine platelet-bound radioactivity. Nonspecific binding is measured in mixtures containing an excess of unlabeled ligand. When binding curves are analyzed by Scatchard analysis, nonspecific binding is derived as a fitted parameter from the binding isotherm by means of a computerized program. To determine the concentration of each inhibitory compound necessary to inhibit 50% of fibrinogen binding to thrombin-stimulated platelets (IC50), each compound is tested at 0.176 μgmol/liter (60 μg/ml). The IC50 is derived by plotting residual fibrinogen binding against the logarithm of the sample compound's concentration.

Human Platelets = test: Inhibition of fibrinogen-mediated platelet aggregation; type: cell-based; settings: for IC50: thrombin-activated human platelets, rate of aggregation
Procedure: II. Inhibition of Fibrinogen - Mediated Platelet Aggregation, which is essentially based on the method described in Blood, Vol. 66, No. 4, October 1985, pp. 846-952, and is as follows.
Human Platelets were isolated from freshly drawn whole blood and were suspended in 0.14 mol/L NaCl, 2.7 mmol/L […], 12 mmol/L NaHCO3, 0.42 mmol/L Na2 HPO4, 0.55 mmol/L glucose, and 5 mmol/L Hepes, pH 7.35 at 2×10^8 platelets/ml. The suspension was incubated at 37° C. An aliquot of 0.4 ml of platelet suspension was activated by human thrombin at a final concentration of 2 μg/ml of thrombin for one minute. After one minute the reaction was stopped by a thrombin inhibitor. Serial dilution of the compound being tested was then added to the activated platelet, the reaction was allowed to proceed for one minute, followed by the addition of human fibrinogen at a final concentration of […] of fibrinogen. Platelet aggregation was then recorded by an aggregometer. Rate of aggregation was used to calculate IC50.

Structure (SMILES) | Inhibition of 125I-Fibrinogen Binding to Platelet, inhibition at 50 μg/ml [1] | Inhibition of Fibrinogen Mediated Platelet Aggregation % inhibition at 100 μM (Human Platelets) | IC50 (Human Platelets) | IC50 [1]
CC(C)[C@H](NC(=O)[C@H](CC(=O)O)NC(=O)[C@@H]1CCCN1C(=O)[C@@H](N)CCCNC(=N)N)C(=O)O [L-arginyl-L-prolyl-L-aspartyl-L-valine, L-Arginyl-L-prolyl-L-aspartyl-L-valine] (H-RPDV-OH) | * (Inhibited less than 50% at 50 μg/ml) | 25% | > 100 µM | –
CC(C)[C@H](NC(=O)[C@H](CC(=O)O)NC(=O)[C@@H]1CCN1C(=O)CCCCN)C(=O)O [N-(5-aminopentanoyl)-azetidin-(2S)-carboxyl-Asp-Val] (H-[Ava][Aze]DV-OH) | – | 74% | 59 µM | > 200 µM
CC(C)[C@H](NC(=O)[C@H](CC(=O)O)NC(=O)[C@@H]1CCN1C(=O)[C@@H](N)CCCNC(=N)N)C(=O)O [N-(L-arqinyl)-azetidine-(2S)-carboxyl-Asp-Val] (H-R[Aze]DV-OH) | – | 91% | 13 µM | 13 µM
CC(C)[C@H](NC(=O)[C@H](CC(=O)O)NC(=O)C1CCCCN1C(=O)[C@@H](N)CCCNC(=N)N)C(=O)O (stereo partly drawn) [N-[1-(L-arginyl)piperidin-2-yl-carbonyl]-L-aspartyl-L-valine] (H-R[ξPip]DV-OH) | * (Inhibited less than 50% at 50 μg/ml) | 73% | 28.6 µM | –
